Where two headings read alike, the source gives them in different places.
What was measured:
Phorbol Ester = assay type: binding; details: 10 μM; mouse
CYP450, 1A2 [1] = biological target: T1, CYP450, 1A2 (Homo sapiens, UniProt P05177); details: 10 µM
T1 sequence (P05177 1-516): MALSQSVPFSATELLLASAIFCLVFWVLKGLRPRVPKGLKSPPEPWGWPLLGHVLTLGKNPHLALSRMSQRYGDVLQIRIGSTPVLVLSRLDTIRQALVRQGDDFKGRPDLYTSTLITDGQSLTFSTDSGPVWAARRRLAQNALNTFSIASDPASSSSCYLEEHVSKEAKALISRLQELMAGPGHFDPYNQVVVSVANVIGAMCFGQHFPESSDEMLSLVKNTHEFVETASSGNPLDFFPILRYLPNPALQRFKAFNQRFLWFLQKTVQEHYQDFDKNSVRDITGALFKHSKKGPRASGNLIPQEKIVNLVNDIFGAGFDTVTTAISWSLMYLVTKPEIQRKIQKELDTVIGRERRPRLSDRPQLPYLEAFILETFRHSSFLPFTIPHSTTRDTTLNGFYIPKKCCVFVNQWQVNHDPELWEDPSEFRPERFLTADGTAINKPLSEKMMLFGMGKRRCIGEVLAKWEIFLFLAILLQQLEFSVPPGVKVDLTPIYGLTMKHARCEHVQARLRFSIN

Potassium Channel (KATP) = Potassium Channel (KATP) (Cricetus cricetus, UniProt Q09427); assay type: binding; details: hamster; for % Inhibition: 10 μM
Potassium Channel (KATP), sequence (Q09427 whole entry): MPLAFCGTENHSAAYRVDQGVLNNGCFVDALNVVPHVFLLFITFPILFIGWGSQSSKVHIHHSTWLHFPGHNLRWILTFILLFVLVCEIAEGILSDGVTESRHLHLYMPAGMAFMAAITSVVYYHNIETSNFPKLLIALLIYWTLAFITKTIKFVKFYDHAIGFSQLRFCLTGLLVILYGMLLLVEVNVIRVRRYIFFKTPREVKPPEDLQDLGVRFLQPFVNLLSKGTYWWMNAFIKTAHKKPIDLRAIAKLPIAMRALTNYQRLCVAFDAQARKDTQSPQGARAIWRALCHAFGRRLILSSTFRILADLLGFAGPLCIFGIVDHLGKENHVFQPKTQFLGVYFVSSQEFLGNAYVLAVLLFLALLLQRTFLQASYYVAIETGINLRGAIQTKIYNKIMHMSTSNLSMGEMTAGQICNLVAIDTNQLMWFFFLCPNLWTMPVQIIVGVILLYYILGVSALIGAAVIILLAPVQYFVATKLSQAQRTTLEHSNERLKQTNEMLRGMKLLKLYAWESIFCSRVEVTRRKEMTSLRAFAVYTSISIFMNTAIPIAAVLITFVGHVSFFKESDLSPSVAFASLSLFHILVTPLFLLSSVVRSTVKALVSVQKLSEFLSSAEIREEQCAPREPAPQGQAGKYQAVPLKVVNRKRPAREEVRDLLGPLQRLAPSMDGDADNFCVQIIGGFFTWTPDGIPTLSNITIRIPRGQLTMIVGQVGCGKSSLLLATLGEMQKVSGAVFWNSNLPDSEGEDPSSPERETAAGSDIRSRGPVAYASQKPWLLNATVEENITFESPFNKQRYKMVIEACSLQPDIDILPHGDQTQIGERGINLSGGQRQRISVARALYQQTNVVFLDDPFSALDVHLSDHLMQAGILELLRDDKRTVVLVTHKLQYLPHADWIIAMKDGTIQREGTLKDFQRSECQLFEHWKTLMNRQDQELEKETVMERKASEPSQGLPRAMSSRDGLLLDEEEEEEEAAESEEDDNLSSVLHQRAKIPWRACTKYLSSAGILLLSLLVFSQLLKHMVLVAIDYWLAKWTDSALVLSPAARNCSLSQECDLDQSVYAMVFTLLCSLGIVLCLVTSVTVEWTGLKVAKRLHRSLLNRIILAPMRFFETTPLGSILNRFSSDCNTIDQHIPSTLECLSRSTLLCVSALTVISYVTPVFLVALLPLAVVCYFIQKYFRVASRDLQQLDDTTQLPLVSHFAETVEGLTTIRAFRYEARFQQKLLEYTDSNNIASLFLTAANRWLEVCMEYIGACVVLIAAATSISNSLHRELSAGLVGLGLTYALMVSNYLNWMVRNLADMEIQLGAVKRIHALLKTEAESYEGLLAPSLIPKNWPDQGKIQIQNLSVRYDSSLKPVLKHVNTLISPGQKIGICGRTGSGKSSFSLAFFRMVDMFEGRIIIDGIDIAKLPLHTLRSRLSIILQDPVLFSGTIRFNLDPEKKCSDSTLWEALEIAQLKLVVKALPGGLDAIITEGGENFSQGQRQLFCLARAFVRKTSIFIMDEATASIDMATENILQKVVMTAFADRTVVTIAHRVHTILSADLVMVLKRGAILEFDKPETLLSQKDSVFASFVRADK

MRSA strain BAA-1717 = experiment: Neutropenic murine thigh model; assay type: in vivo, mice; details: 25 mg/kg PO once, 2 h after infection; CFU counts 24 hrs after dosing; n=4
[2] = biological target: Transporter, Norepinephrine (NET) (Homo sapiens, UniProt P23975); assay type: binding; details: for % Inhibition: 10 μM
Transporter, Norepinephrine (NET), sequence (P23975 whole entry): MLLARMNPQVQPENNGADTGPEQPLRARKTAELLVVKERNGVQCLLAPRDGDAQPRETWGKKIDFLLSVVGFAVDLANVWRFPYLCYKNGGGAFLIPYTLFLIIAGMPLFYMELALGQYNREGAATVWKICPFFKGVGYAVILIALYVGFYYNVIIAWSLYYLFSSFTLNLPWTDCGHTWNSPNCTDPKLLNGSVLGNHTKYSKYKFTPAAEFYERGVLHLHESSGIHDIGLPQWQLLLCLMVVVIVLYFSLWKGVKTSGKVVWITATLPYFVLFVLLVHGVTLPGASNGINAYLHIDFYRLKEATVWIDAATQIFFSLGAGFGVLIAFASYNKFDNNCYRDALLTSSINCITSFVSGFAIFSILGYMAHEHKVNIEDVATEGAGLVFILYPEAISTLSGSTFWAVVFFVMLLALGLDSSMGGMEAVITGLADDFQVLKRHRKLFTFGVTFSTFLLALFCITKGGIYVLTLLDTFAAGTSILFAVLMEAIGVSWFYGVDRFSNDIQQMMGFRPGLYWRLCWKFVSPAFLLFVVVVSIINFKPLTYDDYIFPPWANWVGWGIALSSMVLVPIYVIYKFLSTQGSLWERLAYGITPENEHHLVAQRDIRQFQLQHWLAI

Potassium Channel hERG [3] = biological target: T2, Potassium Channel hERG (Homo sapiens, UniProt Q12809); details: 10 µM
Adrenergic β2 = Adrenergic β2 (Homo sapiens, UniProt P07550); assay type: binding; details: for % Inhibition: 10 μM
Adrenergic β2, sequence (P07550 whole entry): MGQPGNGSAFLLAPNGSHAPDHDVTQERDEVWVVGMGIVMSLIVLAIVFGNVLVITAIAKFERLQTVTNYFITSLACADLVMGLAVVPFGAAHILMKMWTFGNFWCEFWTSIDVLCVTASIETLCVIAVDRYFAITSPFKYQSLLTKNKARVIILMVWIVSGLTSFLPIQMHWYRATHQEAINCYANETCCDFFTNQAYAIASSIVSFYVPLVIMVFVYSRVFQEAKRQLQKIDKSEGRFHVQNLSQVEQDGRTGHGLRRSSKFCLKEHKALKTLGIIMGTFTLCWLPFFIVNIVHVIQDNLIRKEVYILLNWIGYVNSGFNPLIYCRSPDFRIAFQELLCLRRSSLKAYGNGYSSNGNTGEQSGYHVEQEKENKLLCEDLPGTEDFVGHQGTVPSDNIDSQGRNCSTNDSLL

[4] = test system: Calcium Channel L-type, Dihydropyridine; assay type: binding; details: 10 μM; rat
Imidazoline I2, Central = assay type: binding; details: 10 μM; rat
CYP450, 3A4 [5] = biological target: T3, CYP450, 3A4 (Homo sapiens, UniProt P08684); details: 10 µM
T3 sequence (P08684 whole entry): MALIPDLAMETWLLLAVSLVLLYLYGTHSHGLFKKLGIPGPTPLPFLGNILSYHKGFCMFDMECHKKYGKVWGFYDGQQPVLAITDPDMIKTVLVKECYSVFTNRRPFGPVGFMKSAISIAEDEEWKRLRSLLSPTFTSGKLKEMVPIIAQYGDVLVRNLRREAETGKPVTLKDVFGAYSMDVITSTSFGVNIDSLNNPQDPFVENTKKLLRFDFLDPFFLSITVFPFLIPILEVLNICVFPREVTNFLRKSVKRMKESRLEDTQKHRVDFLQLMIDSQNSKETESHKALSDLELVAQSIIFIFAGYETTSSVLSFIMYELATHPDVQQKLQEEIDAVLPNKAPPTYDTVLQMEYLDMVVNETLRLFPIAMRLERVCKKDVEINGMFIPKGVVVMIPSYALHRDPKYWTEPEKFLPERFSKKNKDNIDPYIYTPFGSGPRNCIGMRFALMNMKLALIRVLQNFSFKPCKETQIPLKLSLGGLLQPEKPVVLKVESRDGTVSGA

[6] = in vivo
Dopamine D1 = Dopamine D1 (Homo sapiens, UniProt P21728); assay type: binding; details: for % Inhibition: 10 μM
Dopamine D1, sequence (P21728 whole entry): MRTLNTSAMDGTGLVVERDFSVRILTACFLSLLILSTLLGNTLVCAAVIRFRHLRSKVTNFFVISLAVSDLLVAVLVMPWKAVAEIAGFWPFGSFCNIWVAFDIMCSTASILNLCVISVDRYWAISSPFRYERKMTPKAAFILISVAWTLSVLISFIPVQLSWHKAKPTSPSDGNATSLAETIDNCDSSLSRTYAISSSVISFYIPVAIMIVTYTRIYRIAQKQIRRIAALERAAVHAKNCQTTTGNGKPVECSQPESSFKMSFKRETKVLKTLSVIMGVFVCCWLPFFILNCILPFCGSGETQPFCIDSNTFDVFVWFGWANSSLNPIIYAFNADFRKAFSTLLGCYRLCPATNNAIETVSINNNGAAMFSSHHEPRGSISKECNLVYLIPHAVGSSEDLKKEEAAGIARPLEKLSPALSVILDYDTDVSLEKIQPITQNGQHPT

CYP450, 2C19 [7] = biological target: T4, CYP450, 2C19 (Homo sapiens, UniProt P33261); details: 10 µM
Cannabinoid CB1 = Cannabinoid CB1 (Homo sapiens, UniProt P21554); assay type: binding; details: for % Inhibition: 10 μM
Opiate μ(OP3, MOP) = Opiate μ(OP3, MOP) (Homo sapiens, UniProt P35372); assay type: binding; details: for % Inhibition: 10 μM
Opiate μ(OP3, MOP), sequence (P35372 whole entry): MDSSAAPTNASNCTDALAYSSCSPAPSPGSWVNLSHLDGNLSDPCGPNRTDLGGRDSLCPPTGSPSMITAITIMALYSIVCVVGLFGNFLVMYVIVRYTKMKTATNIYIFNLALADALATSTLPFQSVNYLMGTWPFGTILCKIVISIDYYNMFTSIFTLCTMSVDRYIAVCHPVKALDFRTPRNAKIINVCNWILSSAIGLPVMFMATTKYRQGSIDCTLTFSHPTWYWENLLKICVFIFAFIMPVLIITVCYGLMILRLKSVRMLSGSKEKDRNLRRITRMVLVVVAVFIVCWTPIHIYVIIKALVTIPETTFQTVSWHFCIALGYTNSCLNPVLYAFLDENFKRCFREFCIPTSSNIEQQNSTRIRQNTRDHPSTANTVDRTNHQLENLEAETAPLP

GABAA, Muscimol, Central = assay type: binding; details: 10 μM; rat
CYP450, 2C9 [8] = biological target: T5, CYP450, 2C9 (Homo sapiens, UniProt P11712); details: 10 µM
T5 sequence (P11712 whole entry): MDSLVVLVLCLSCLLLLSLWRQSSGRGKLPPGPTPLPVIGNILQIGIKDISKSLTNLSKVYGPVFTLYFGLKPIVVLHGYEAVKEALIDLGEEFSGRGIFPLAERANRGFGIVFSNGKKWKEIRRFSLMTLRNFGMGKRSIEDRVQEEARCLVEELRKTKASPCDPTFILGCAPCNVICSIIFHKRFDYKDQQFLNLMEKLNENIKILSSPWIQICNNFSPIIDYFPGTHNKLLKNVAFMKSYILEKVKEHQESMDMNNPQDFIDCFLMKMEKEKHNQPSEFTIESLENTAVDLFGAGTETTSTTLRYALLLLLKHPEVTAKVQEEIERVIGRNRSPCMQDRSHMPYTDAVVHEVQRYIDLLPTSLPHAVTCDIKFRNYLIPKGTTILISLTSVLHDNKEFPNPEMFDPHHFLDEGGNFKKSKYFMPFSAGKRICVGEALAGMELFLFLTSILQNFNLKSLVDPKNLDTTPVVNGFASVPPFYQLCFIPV

Adrenergic β1 = Adrenergic β1 (Homo sapiens, UniProt P08588); assay type: binding; details: for % Inhibition: 10 μM
Adrenergic β1, sequence (P08588 whole entry): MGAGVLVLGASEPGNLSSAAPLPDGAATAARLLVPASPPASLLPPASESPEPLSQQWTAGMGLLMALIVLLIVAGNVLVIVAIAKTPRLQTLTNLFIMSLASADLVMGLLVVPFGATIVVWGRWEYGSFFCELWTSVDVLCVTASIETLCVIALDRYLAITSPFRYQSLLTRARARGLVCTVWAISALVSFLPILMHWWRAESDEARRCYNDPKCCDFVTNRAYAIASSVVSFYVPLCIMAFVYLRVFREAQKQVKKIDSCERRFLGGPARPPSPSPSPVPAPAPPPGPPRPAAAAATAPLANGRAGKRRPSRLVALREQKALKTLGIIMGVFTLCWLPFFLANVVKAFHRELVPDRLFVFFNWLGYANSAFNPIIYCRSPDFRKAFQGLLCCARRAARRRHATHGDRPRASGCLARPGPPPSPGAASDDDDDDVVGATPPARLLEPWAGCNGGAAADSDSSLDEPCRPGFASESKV

Muscarinic M2 = biological target: T6, Muscarinic M2 (Homo sapiens, UniProt P08172); assay type: binding; details: for % Inhibition: 10 μM
T6 sequence (P08172 1-466): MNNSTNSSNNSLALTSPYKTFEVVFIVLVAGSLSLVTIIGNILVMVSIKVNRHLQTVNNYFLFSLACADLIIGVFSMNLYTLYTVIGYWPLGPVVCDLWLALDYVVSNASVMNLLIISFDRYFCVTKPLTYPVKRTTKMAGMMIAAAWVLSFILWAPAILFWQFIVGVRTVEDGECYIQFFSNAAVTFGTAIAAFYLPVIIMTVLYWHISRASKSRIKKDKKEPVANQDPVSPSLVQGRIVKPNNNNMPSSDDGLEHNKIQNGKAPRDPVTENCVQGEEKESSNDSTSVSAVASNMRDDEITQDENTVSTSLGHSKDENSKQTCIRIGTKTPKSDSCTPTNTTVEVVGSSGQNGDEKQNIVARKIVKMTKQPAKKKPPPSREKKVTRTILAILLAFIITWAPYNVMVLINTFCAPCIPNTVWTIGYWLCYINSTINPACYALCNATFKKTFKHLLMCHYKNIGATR

CYP1A2 = CYP1A2 (Homo sapiens, UniProt P05177)
CYP2C19 = CYP2C19 (Homo sapiens, UniProt P33261)
CYP2D6 = CYP2D6 (Homo sapiens, UniProt P10635)
CYP450, 1A2 [9] = biological target: T1, CYP450, 1A2; details: 10 μM
CYP450, 2C19 [10] = biological target: T4, CYP450, 2C19; details: 10 μM
CYP450, 3A4 [11] = biological target: T3, CYP450, 3A4; details: 10 μM
Potassium Channel hERG [12] = biological target: T2, Potassium Channel hERG; details: 10 μM
CYP450, 2D6 = CYP450, 2D6 (Homo sapiens, UniProt P10635); details: 10 μM
CYP450, 2C9 [13] = biological target: T5, CYP450, 2C9; details: 10 μM

SMILES	% Inhibition (Phorbol Ester) [%]	% Inhibition (Potassium Channel (KATP)) [%]	% Inhibition [2] [%]	% Inhibition (Adrenergic β2) [%]	% Inhibition [4] [%]	% Inhibition (Imidazoline I2, Central) [%]	% Inhibition (Dopamine D1) [%]	% Inhibition (Cannabinoid CB1) [%]	% Inhibition (Opiate μ(OP3, MOP)) [%]	% Inhibition (GABAA, Muscimol, Central) [%]	% Inhibition (Adrenergic β1) [%]	% Inhibition (Muscarinic M2) [%]	% Inhibition (CYP450, 1A2 [9]) [%]	% Inhibition (CYP450, 2C19 [10]) [%]	% Inhibition (CYP450, 3A4 [11]) [%]	% Inhibition (Potassium Channel hERG [12]) [%]	% Inhibition (CYP450, 2D6) [%]	% Inhibition (CYP450, 2C9 [13]) [%]	further results
O=C(Nc1nnc(-c2ccc(F)cc2)o1)N1CCc2ccccc2C1 [MBX-4132]	4	10	50	36	15	33	−8	14	74	1	−10	13							% Inhibition (CYP450, 1A2 [1]): 9%; drop in CFU/g compared to untreated controls (MRSA strain BAA-1717): > 2 log CFU/g; % Inhibition (Potassium Channel hERG [3]): 64%; % Inhibition (CYP450, 3A4 [5]): 7%; elevated single dose tolerability [6]: no effects distinct from vehicle controls; % Inhibition (CYP450, 2C19 [7]): 44%; % Inhibition (CYP450, 2C9 [8]): 10%
O=C(Nc1nnc(-c2ccc(F)cc2)o1)c1ccc(Oc2ccccc2)nc1 [MBX-4237]	2				2	14				−6									inhibition at 10 µM (CYP1A2): 1%; inhibition at 10 µM (Potassium Channel (KATP)): 9%; inhibition at 10 µM [2]: 45%; inhibition at 10 µM (Adrenergic β2): 15%; inhibition at 10 µM (CYP2C19): 3%; inhibition at 10 µM (Dopamine D1): 7%; inhibition at 10 µM (CYP2D6): -4%; inhibition at 10 µM (Cannabinoid CB1): 7%; inhibition at 10 µM (Opiate μ(OP3, MOP)): 12%; inhibition at 10 µM (Adrenergic β1): -9%; inhibition at 10 µM (Muscarinic M2): 17%
O=C(Nc1nnc(-c2ccc(F)cc2)o1)N1CC=C(C(F)(F)F)CC1 [MBX-4347]	7	2	32	8	16	−5	5	0	−14	4	3	2	2	8	9	0	9	4	
O=C(Nc1nnc(-c2ccc(F)cc2)o1)c1ccc(OC2CCCCC2)cc1 [MBX-4292]	2	8	77	6	23	10	17	11	4	−4	3	0	5	9	4	8	2	10	
